Experimental data: patent US8338472B2, “Hexahydrocyclopentyl[F]indazole carboxamides and derivatives thereof as selective glucocorticoid receptor modulators” (Merck Sharp & Dohme Corp., priority 2008, dated 2012)
Where two headings read alike, the source gives them in different places.

Key:
human GR = molecular target: T1, human GR (Homo sapiens, UniProt P04150); experiment: Transrepression Assay (GITAR), TNFα-β-lactamase reporter gene in U937 cells; assay type: cell-based; details: for GITAR Greater than by GRAMMER % SEP: GITAR Emax minus GRAMMER Emax; for EC50: inflection point, read-out: Transrepression U937 Cells GITAR IP
T1 construct: U937 cells contain an endogenous glucocorticoid receptor (GR); endogenous in cells; host or cells: U937 cells stably transfected with the TNF-alpha promoter/beta-lactamase reporter
T1 sequence (P04150 1-777): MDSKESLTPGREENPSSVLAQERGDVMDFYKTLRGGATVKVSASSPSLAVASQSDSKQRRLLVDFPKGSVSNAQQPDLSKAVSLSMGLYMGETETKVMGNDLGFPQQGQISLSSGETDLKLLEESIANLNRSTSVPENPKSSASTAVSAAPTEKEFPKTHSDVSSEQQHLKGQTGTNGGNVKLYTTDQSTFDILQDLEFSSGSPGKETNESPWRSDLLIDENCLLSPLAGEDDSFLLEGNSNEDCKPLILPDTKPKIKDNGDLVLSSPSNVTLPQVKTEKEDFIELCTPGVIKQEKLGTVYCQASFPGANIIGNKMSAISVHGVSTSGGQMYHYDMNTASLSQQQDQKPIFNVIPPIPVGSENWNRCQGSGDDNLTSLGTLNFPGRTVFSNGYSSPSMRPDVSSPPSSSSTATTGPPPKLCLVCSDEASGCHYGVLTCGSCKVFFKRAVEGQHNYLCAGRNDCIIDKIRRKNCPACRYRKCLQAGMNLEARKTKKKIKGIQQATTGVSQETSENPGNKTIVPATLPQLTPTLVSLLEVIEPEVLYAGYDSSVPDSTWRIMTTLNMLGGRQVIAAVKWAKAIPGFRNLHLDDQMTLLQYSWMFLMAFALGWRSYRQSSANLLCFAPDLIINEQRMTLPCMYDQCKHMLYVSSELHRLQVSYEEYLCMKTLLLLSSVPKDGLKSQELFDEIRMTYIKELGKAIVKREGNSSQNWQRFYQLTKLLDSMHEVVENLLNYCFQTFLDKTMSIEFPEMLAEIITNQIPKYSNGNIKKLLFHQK
In short: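 Repression of PMA (5 ng/ml final)/LPS (100 ng/ml final)-induced TNF-α promoter activity, read as β-lactamase cleavage of CCF2-AM, in stably transfected U937 cells expressing native GR. Compound added 30-45 min before stimulation, overnight (~18 hr) 37° C; normalized to 100 nM dexamethasone (100%).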

Glucocorticoid Receptor = molecular target: T2, Glucocorticoid Receptor (Homo sapiens, UniProt P04150); experiment: Trans-Activation Modulation of Glucocorticoid Receptor (GRAMMER), MMTV-LUC reporter gene in A549 cells; assay type: cell-based; details: Table 1; for Emax: A549, A549 cells, read-out: Transactivation A549 Cells GRAMMER Emax; for EC50: inflection point, read-out: Transactivation A549 Cells GRAMMER IP
T2 construct: These cells express large amount of the GR and are very responsive to GC treatment; endogenous in cells; host or cells: A549 cells transiently transfected with the MMTV-LUC reporter
T2 sequence (P04150 1-777): T1 sequence (P04150 1-777)
In short: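 Luciferase from a transiently transfected MMTV-LUC reporter was measured after 24 h compound exposure (≤1% DMSO) in A549 or MDA-MB-453 cells. For antagonism, the decrease of 10 nM dexamethasone-induced signal was calculated. For agonism, Emax was referenced to 300 nM dexamethasone.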

[1] = molecular target: T3, glucocorticoid receptor (GR) (Homo sapiens, UniProt P04150); experiment: Ligand binding assay (GR BIND), 3H-dexamethasone displacement in MDA-MB-453 cell lysate; details: GR BIND Ki, Table 1
T3 sequence (P04150 1-777): T1 sequence (P04150 1-777)

[2] = U-937, U937 cells, activity repressed by 100 nM dexamethasone = 100%, Table 1, read-out: Transrepression U937 Cells GITAR Emax
[3] = U-937, text statement, 100 nM dexamethasone = 100%, read-out: maximal activity in the transrepression assay (GITAR)
[4] = Emax relative to 300 nM dexamethasone

Row | Structure (SMILES) | GITAR Greater than by GRAMMER % SEP (human GR; Table 1) [%] | Emax (human GR; [2]) [%] | Emax (human GR; [3]) [%] | EC50 (human GR; U937 cells, Table 1) [nM] | Emax (Glucocorticoid Receptor; [4]) [%] | EC50 (Glucocorticoid Receptor; A549 cells) [nM] | Ki [1] [nM] | Transrepression U937 Cells GITAR Emax (human GR; U937 cells, activity repressed by 100 nM dexamethasone = 100%, Table 1) [%] | Transactivation A549 Cells GRAMMER Emax (Glucocorticoid Receptor; A549 cells, Emax relative to 300 nM dexamethasone) [%]
1 | CC(C)CN(CC(O)C(F)(F)F)C(=O)[C@H]1CCC2=Cc3c(cnn3-c3ccccc3)C[C@@]21C (stereo partly drawn) [Compound 80, (4αR,5S)-N-isobutyl-4a-methyl-1-phenyl-N-(3,3,3-trifluoro-2-hydroxypropyl)-1,4,4α,5,6,7-hexahydrocyclopenta[f]indazole-5-carboxamide] | 12.8 | 83.2 | > 5 | 337 | 70.5 | 222 | 3.7 |  | 
2 | C[C@]12Cc3cnn(-c4ccc(F)cc4)c3C=C1CC[C@@H]2C(=O)N(CCc1ccccc1)Cc1ccccc1 [Compound 49, (4αR,5S)-N-benzyl-1-(4-fluorophenyl)-4α-methyl-N-(2-phenylethyl)-1,4,4,5,6,7-hexahydrocyclopenta[f]indazole-5-carboxamide] | 10.1 | 11.6 | > 5 | 145 | 1.5 | 260 | 1.9 |  | 
3 | CC(C)CCN(CCC(C)C)C(=O)[C@H]1CCC2=Cc3c(cnn3-c3ccc(F)cc3)C[C@@]21C [Compound 8, (4αR,5S)-1-(4-fluorophenyl)-4α-methyl-N,N-bis(3-methylbutyl)-1,4,4α,5,6,7-hexahydrocyclopenta[f]indazole-5-carboxamide] | 12.4 | 18 | > 5 | 812 | 5.6 | 728 | 1 |  | 
4 | CC1CC(C)CN(C(=O)[C@H]2CCC3=Cc4c(cnn4-c4ccc(F)cc4)C[C@@]32C)C1 (stereo partly drawn) [Compound 53, (4αR,5S)-5-[(3,5-dimethylpiperidin-1-yl)carbonyl]-1-(4-fluorophenyl)-4α-methyl-1,4,4α,5,6,7-hexahydrocyclopenta[f]indazole] | 40.2 | 58.4 | > 5 | 2250 | 18.3 | 2290 | 37.4 |  | 
5 | C[C@]12Cc3cnn(-c4ccc(F)cc4)c3C=C1CC[C@@H]2C(=O)NCc1ccc(Cl)cc1Cl [Compound 3, (4αR,5S)-N-(2,4-dichlorobenzyl)-1-(4-fluorophenyl)-4α-methyl-1,4,4α,5,6,7-hexahydrocyclopenta[f]indazole-5-carboxamide] | 16.1 | 17 | > 5 | 5200 | 0.9 | 5590 | 16.2 |  | 
6 | C[C@]12Cc3cnn(-c4ccc(F)cc4)c3C=C1CC[C@@H]2C(=O)N(CCO)Cc1ccccc1CS(=O)(=O)c1ccccc1 [Compound 30, (4αR,5S)-1-(4-fluorophenyl)-N-(2-hydroxyethyl)-4α-methyl-N-{2-[(phenylsulfonyl)methyl]benzyl}-1,4,4α,5,6,7-hexahydrocyclopenta[f] carboxamide] | 31.2 | 35.5 | > 5 | 1080 | 4.3 | 1110 | 12.2 |  | 
7 | CCCN(CC(O)C(F)(F)F)C(=O)[C@H]1CCC2=Cc3c(cnn3-c3ccccc3)C[C@@]21C (stereo partly drawn) [Compound 78, (4αR,5S)-4α-methyl-1-phenyl-N-propyl-N-(3,3,3-trifluoro-2-hydroxypropyl)-1,4,4α,5,6,7-hexahydrocyclopenta[f]indazole-5-carboxamide] | 21.0 | 86 | > 5 | 179 | 65 | 165 | 2.7 |  | 
8 | C[C@]12Cc3cnn(-c4ccc(F)cc4)c3C=C1CC[C@@H]2C(=O)N(CC1CCC1)CC1CCCO1 (stereo partly drawn) [Compound 64, (4αR,5S)-N-(cyclobutylmethyl)-1-(4-fluorophenyl)-4α-methyl-N-(tetrahydrofuran-2-ylmethyl)-1,4,4α,5,6,7-hexahydrocyclopenta[f]indazole-5-carboxamide] | 9.5 | 36.6 | > 5 | 479 | 27.1 | 674 | 1.9 |  | 
9 | C[C@]12Cc3cnn(-c4ccc(F)cc4)c3C=C1CC[C@@H]2C(=O)N1CCCC(Cc2cccc(C(F)(F)F)c2)C1 (stereo partly drawn) [Compound 21, (4αR,5S)-1-(4-fluorophenyl)-4α-methyl-5-({3-[3-(trifluoromethyl)benzyl]piperidin-1-yl}carbonyl)-1,4,4α,5,6,7-hexahydrocyclopenta[f]indazole] | 1.9 | 28.1 | > 5 | 742 | 26.2 | 569 | 2.3 |  | 
10 | C[C@]12Cc3cnn(-c4ccc(F)cc4)c3C=C1CC[C@@H]2C(=O)N1CCC(C(F)(F)F)CC1 [Compound 42, (4αR,5S)-1-(4-fluorophenyl)-4α-methyl-5-{[4-(trifluoromethyl)piperidin-1-yl]carbonyl}-1,4,4α,5,6,7-hexahydrocyclopenta[f]indazole] | 35.3 | 64.8 | > 5 | 889 | 29.5 | 419 | 21.2 |  | 
11 | CCCN(CC1CC1)C(=O)[C@H]1CCC2=Cc3c(cnn3-c3ccc(F)cc3)C[C@@]21C [Compound 5, (4αR,5S)-N-(cyclopropylmethyl)-1-(4-fluorophenyl)-4α-methyl-N-propyl-1,4,4α,5,6,7-hexahydrocyclopenta[f]indazole-5-carboxamide] | 24.2 | 59.6 | > 5 | 674 | 35.4 | 358 | 0.9 |  | 
12 | C[C@]12Cc3cnn(-c4ccc(F)cc4)c3C=C1CC[C@@H]2C(=O)N(CCO)Cc1ccccc1F [Compound 25, (4α,5S)-N-(2-fluorobenzyl)-1-(4-fluorophenyl)-N-(2-hydroxyethyl)-4α-methyl-1,4,4α,5,6,7-hexahydrocyclopenta[f]indazole-5-carboxamide] | 38.7 | 48 | > 5 | 2740 | 9.3 | 1440 | 12.5 |  | 
13 | C[C@]12Cc3cnn(-c4ccc(F)cc4)c3C=C1CC[C@@H]2C(=O)Nc1ccccc1S(N)(=O)=O [Compound 23, (4αR,5S)-N-[2-(aminosulfonyl)phenyl]-1-(4-fluorophenyl)-4α-methyl-1,4,4α,5,6,7-hexahydrocyclopenta[f]indazole-5-carboxamide] | 14.2 | 18 | > 5 | 1700 | 3.8 | 45.4 | 19.4 |  | 
14 | CC(C)CN(CC(C)C)C(=O)[C@H]1CCC2=Cc3c(cnn3-c3ccc(F)cc3)C[C@@]21C [Compound 11, (4αR,5S)-1-(4-fluorophenyl)-N,N-diisobutyl-4α-methyl-1,4,4α,5,6,7-hexahydrocyclopenta[f]indazole-5-carboxamide] | 22.2 | 67.5 | > 5 | 328 | 45.3 | 177 | 1.7 |  | 
15 | C[C@]12Cc3cnn(-c4ccc(F)cc4)c3C=C1CC[C@@H]2C(=O)N(CCc1ccccc1F)CC(O)CC(F)(F)F (stereo partly drawn) [Compound 95, (4αR,5S)-1-(4-fluorophenyl)-N-[2-(2-fluorophenyl)ethyl]-4α-methyl-N-(4,4,4-trifluoro-2-hydroxybutyl)-1,4,4α,5,6,7-hexahydrocyclopenta[f]indazole-5-carboxamide] | 7.3 |  |  | 282 |  | 374 | 1 | 54.2 | 46.9
